Measured values reported in patent US5843911A, “Hyaluronidase inhibitor containing god-type ellagitannin as active ingredient” (Suntory Limited, priority 1995, dated 1998).

Molecular target: T1, bovine testis-derived hyaluronidase (Type IV of Sigma) (Bos taurus, UniProt Q2YDK3)
T1 construct: purchased Sigma Type IV; host or cells: bovine testis
T1 sequence (Q2YDK3 36-553): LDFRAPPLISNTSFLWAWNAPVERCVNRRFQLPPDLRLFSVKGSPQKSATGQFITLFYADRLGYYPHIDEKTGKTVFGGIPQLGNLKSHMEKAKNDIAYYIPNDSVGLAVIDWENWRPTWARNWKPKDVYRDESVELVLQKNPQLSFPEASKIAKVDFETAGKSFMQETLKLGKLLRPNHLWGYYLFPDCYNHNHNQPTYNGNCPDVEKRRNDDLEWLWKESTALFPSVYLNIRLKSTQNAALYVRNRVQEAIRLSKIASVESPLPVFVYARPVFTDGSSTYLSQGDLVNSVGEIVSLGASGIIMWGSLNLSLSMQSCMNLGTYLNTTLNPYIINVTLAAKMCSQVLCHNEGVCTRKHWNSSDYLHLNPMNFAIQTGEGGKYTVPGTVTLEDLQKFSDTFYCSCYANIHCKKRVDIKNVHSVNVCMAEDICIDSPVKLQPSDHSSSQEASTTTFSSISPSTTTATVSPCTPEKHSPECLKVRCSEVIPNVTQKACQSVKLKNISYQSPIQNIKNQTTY
Assay: Assay for the hyaluronidase inhibiting activity (inhibition of compound 48/80 activation of inactivated enzyme, colorimetric A585)
Assay type: biochemical
Details: 0.1M acetate buffer pH 4.0, 37° C., enzyme activated with compound 48/80, sodium hyaluronate substrate
Experimental: Stated more specifically, a suitable amount of a test sample was dissolved in 100 μl of a 0.1M acetate buffer solution (pH 4.0) and the solution was pipetted into a test tube. Following the addition of 0.10 mg (100 NF units) of the enzyme dissolved in 50 μl of the same buffer solution, the mixture was incubated at 37° C. for 20 min. […] Thereafter, 200 μg of sodium hyaluronate derived from a microorganism dissolved in 250 μl of the same buffer solution was added and the mixture was incubated at 37° C. for 40 min. Finally, 100 μl of 0.4N NaOH was added and, after cooling with ice, 100 μl of a borate buffer solution (pH 9.10) was added and the mixture was boiled for 3 min; after cooling with ice, 3 ml of a p-dimethylaminobenzaldehyde solution was added and the mixture was incubated for 20 min at 37° C. before [MUT] measurement was conducted. In place of the sample solution, 0.1M acetate buffer solution (pH 4.0) was used to prepare a control. […] The hyaluronidase inhibiting activity of the sample solution was expressed by percent inhibition as determined from the following equation: [formula] where A: [MUT] of the control solution B: [MUT] of the blank for the control solution C: [MUT] of the sample solution D: [MUT] of the blank for the sample solution.

## O=C(O)c1cc(=O)c2c(OCC(O)COc3cccc4oc(C(=O)O)cc(=O)c34)cccc2o1 [Sodium cromoglycate]
  IC50: 299 µM
